According to PubChem BioAssay (NCI):
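Briefly, cells in 96-well plates were exposed to five compound concentrations for 48 h, and endpoints were estimated by linear interpolation. GI50: concentration for 50% inhibition of growth. TGI is the concentration that stops growth completely.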

Columns and labels:
Assay in all cases: DTP human tumour cell line panel, 48 h
MDA-MB-231 breast = test system: MDA-MB-231 breast
K-562 leukemia = test system: K-562 leukemia
HCT-116 colon = test system: HCT-116 colon
SR leukemia = test system: SR leukemia
786-0 renal = test system: 786-0 renal
MOLT-4 leukemia = test system: MOLT-4 leukemia
NCI-H460 lung = test system: NCI-H460 lung
SN12C renal = test system: SN12C renal
SNB-75 CNS = test system: SNB-75 CNS
NCI-H23 lung = test system: NCI-H23 lung
OVCAR-5 ovarian = test system: OVCAR-5 ovarian
LOX IMVI melanoma = test system: LOX IMVI melanoma
SK-MEL-5 melanoma = test system: SK-MEL-5 melanoma
NCI/ADR-RES ovarian = test system: NCI/ADR-RES ovarian
PC-3 prostate = test system: PC-3 prostate
RXF 393 renal = test system: RXF 393 renal
U251 CNS = test system: U251 CNS
SW-620 colon = test system: SW-620 colon
RPMI-8226 leukemia = test system: RPMI-8226 leukemia
NCI-H522 lung = test system: NCI-H522 lung
HL-60(TB) leukemia = test system: HL-60(TB) leukemia
UO-31 renal = test system: UO-31 renal
TK-10 renal = test system: TK-10 renal
HT29 colon = test system: HT29 colon
IGROV1 ovarian = test system: IGROV1 ovarian
DU-145 prostate = test system: DU-145 prostate
A549 NSCLC = test system: A549 NSCLC
EKVX NSCLC = test system: EKVX NSCLC
MCF7 breast = test system: MCF7 breast
HOP-62 NSCLC = test system: HOP-62 NSCLC
SK-MEL-2 melanoma = test system: SK-MEL-2 melanoma
SNB-19 CNS = test system: SNB-19 CNS
HS 578T breast = test system: HS 578T breast
OVCAR-8 ovarian = test system: OVCAR-8 ovarian
SF-539 CNS = test system: SF-539 CNS
ACHN renal = test system: ACHN renal
SK-MEL-28 melanoma = test system: SK-MEL-28 melanoma
KM12 colon = test system: KM12 colon
HCT-15 colon = test system: HCT-15 colon
UACC-62 melanoma = test system: UACC-62 melanoma
SF-268 CNS = test system: SF-268 CNS
COLO 205 colon = test system: COLO 205 colon
UACC-257 melanoma = test system: UACC-257 melanoma
NCI-H226 lung = test system: NCI-H226 lung
BT-549 breast = test system: BT-549 breast
MDA-MB-435 = test system: MDA-MB-435
OVCAR-3 ovarian = test system: OVCAR-3 ovarian
A498 renal = test system: A498 renal
M14 melanoma = test system: M14 melanoma
SK-OV-3 ovarian = test system: SK-OV-3 ovarian
HCC-2998 colon = test system: HCC-2998 colon
OVCAR-4 ovarian = test system: OVCAR-4 ovarian
SF-295 CNS = test system: SF-295 CNS
HOP-92 NSCLC = test system: HOP-92 NSCLC
T-47D breast = test system: T-47D breast
CCRF-CEM leukemia = test system: CCRF-CEM leukemia
MALME-3M melanoma = test system: MALME-3M melanoma
CAKI-1 renal = test system: CAKI-1 renal

Compound: O=C1CC[C@@H]2[C@H]3CCC(=O)c4c3c(c3cccc(O)c3c4O)O[C@@]23C(=O)c2cccc(O)c2C(O)=C13
- GI50 (MDA-MB-231 breast): > 100 µM
- TGI (MDA-MB-231 breast): > 100 µM
- GI50 (K-562 leukemia): > 100 µM
- TGI (K-562 leukemia): > 100 µM
- GI50 (HCT-116 colon): > 100 µM
- TGI (HCT-116 colon): > 100 µM
- GI50 (SR leukemia): > 100 µM
- TGI (SR leukemia): > 100 µM
- GI50 (786-0 renal): > 100 µM
- TGI (786-0 renal): > 100 µM
- GI50 (MOLT-4 leukemia): > 100 µM
- TGI (MOLT-4 leukemia): > 100 µM
- GI50 (NCI-H460 lung): > 100 µM
- TGI (NCI-H460 lung): > 100 µM
- GI50 (SN12C renal): 61.4 µM
- TGI (SN12C renal): > 100 µM
- GI50 (SNB-75 CNS): > 100 µM
- TGI (SNB-75 CNS): > 100 µM
- GI50 (NCI-H23 lung): > 100 µM
- TGI (NCI-H23 lung): > 100 µM
- GI50 (OVCAR-5 ovarian): > 100 µM
- TGI (OVCAR-5 ovarian): > 100 µM
- GI50 (LOX IMVI melanoma): > 100 µM
- TGI (LOX IMVI melanoma): > 100 µM
- GI50 (SK-MEL-5 melanoma): > 100 µM
- TGI (SK-MEL-5 melanoma): > 100 µM
- GI50 (NCI/ADR-RES ovarian): > 100 µM
- TGI (NCI/ADR-RES ovarian): > 100 µM
- GI50 (PC-3 prostate): > 100 µM
- TGI (PC-3 prostate): > 100 µM
- GI50 (RXF 393 renal): > 100 µM
- TGI (RXF 393 renal): > 100 µM
- GI50 (U251 CNS): > 100 µM
- TGI (U251 CNS): > 100 µM
- GI50 (SW-620 colon): > 100 µM
- TGI (SW-620 colon): > 100 µM
- GI50 (RPMI-8226 leukemia): > 100 µM
- TGI (RPMI-8226 leukemia): > 100 µM
- GI50 (NCI-H522 lung): > 100 µM
- TGI (NCI-H522 lung): > 100 µM
- GI50 (HL-60(TB) leukemia): > 100 µM
- TGI (HL-60(TB) leukemia): > 100 µM
- GI50 (UO-31 renal): > 100 µM
- TGI (UO-31 renal): > 100 µM
- GI50 (TK-10 renal): > 100 µM
- TGI (TK-10 renal): > 100 µM
- GI50 (HT29 colon): > 100 µM
- TGI (HT29 colon): > 100 µM
- GI50 (IGROV1 ovarian): > 100 µM
- TGI (IGROV1 ovarian): > 100 µM
- GI50 (DU-145 prostate): > 100 µM
- TGI (DU-145 prostate): > 100 µM
- GI50 (A549 NSCLC): > 100 µM
- TGI (A549 NSCLC): > 100 µM
- GI50 (EKVX NSCLC): > 100 µM
- TGI (EKVX NSCLC): > 100 µM
- GI50 (MCF7 breast): > 100 µM
- TGI (MCF7 breast): > 100 µM
- GI50 (HOP-62 NSCLC): > 100 µM
- TGI (HOP-62 NSCLC): > 100 µM
- GI50 (SK-MEL-2 melanoma): 74.4 µM
- TGI (SK-MEL-2 melanoma): > 100 µM
- GI50 (SNB-19 CNS): > 100 µM
- TGI (SNB-19 CNS): > 100 µM
- GI50 (HS 578T breast): > 100 µM
- TGI (HS 578T breast): > 100 µM
- GI50 (OVCAR-8 ovarian): > 100 µM
- TGI (OVCAR-8 ovarian): > 100 µM
- GI50 (SF-539 CNS): > 100 µM
- TGI (SF-539 CNS): > 100 µM
- GI50 (ACHN renal): > 100 µM
- TGI (ACHN renal): > 100 µM
- GI50 (SK-MEL-28 melanoma): > 100 µM
- TGI (SK-MEL-28 melanoma): > 100 µM
- GI50 (KM12 colon): > 100 µM
- TGI (KM12 colon): > 100 µM
- GI50 (HCT-15 colon): > 100 µM
- TGI (HCT-15 colon): > 100 µM
- GI50 (UACC-62 melanoma): > 100 µM
- TGI (UACC-62 melanoma): > 100 µM
- GI50 (SF-268 CNS): > 100 µM
- TGI (SF-268 CNS): > 100 µM
- GI50 (COLO 205 colon): > 100 µM
- TGI (COLO 205 colon): > 100 µM
- GI50 (UACC-257 melanoma): > 100 µM
- TGI (UACC-257 melanoma): > 100 µM
- GI50 (NCI-H226 lung): > 100 µM
- TGI (NCI-H226 lung): > 100 µM
- GI50 (BT-549 breast): > 100 µM
- TGI (BT-549 breast): > 100 µM

Compound: CN(C)/C=N/S(=O)(=O)c1nn2c(C=O)c(-c3ccc(-c4ccccc4)cc3)nc2s1
- TGI (MDA-MB-231 breast): 7.35 µM
- TGI (MDA-MB-435): 4.8 µM
- TGI (HCT-116 colon): 2.99 µM
- TGI (SR leukemia): 1.89 µM
- TGI (786-0 renal): 2.99 µM
- TGI (NCI-H460 lung): 13.7 µM
- TGI (OVCAR-3 ovarian): 3.73 µM
- TGI (SN12C renal): 3.19 µM
- TGI (SNB-75 CNS): 18.3 µM
- TGI (NCI-H23 lung): 4.55 µM
- TGI (OVCAR-5 ovarian): 25.3 µM
- TGI (LOX IMVI melanoma): 2.76 µM
- TGI (SK-MEL-5 melanoma): 3.04 µM
- TGI (NCI/ADR-RES ovarian): > 86.8 µM
- TGI (PC-3 prostate): 5.07 µM
- TGI (RXF 393 renal): 4.49 µM
- TGI (U251 CNS): 3.17 µM
- TGI (SW-620 colon): > 26.9 µM
- TGI (RPMI-8226 leukemia): 3 µM
- TGI (A498 renal): 47.5 µM
- TGI (NCI-H522 lung): 1.6 µM
- TGI (M14 melanoma): 3.12 µM
- TGI (HL-60(TB) leukemia): 0.342 µM
- TGI (UO-31 renal): 2.73 µM
- TGI (TK-10 renal): 3.83 µM
- TGI (SK-OV-3 ovarian): 36.2 µM
- TGI (HCC-2998 colon): 11.7 µM
- TGI (OVCAR-4 ovarian): 4.24 µM
- TGI (HT29 colon): 1.49 µM
- TGI (IGROV1 ovarian): 2.59 µM
- TGI (SF-295 CNS): 42.5 µM
- TGI (HOP-92 NSCLC): 10.1 µM
- TGI (DU-145 prostate): 6.13 µM
- TGI (A549 NSCLC): > 44.5 µM
- TGI (EKVX NSCLC): 19.8 µM
- TGI (HOP-62 NSCLC): 22.9 µM
- TGI (T-47D breast): 5.57 µM
- TGI (SK-MEL-2 melanoma): 8.24 µM
- TGI (CCRF-CEM leukemia): 0.647 µM
- TGI (SNB-19 CNS): 25.5 µM
- TGI (MALME-3M melanoma): 2.71 µM
- TGI (SF-539 CNS): 7.54 µM
- TGI (ACHN renal): 3.18 µM
- TGI (SK-MEL-28 melanoma): 4.33 µM
- TGI (KM12 colon): 7.36 µM
- TGI (CAKI-1 renal): 2.88 µM
- TGI (HCT-15 colon): 7.75 µM
- TGI (UACC-62 melanoma): 6.45 µM
- TGI (SF-268 CNS): 6.23 µM
- TGI (UACC-257 melanoma): 9.31 µM
- TGI (NCI-H226 lung): 32.4 µM
- TGI (BT-549 breast): 3.05 µM
